Measured values as given in article PMC8041276 (ACS Chemical Neuroscience, 2021).

Assays:
D3 dopamine receptor = molecular target: T1, D3 dopamine receptor (Homo sapiens, UniProt P35462); test: Eurofins Cerep off-target binding, % inhibition at 1 μM
T1 construct: Eurofins Cerep (contract assay)
Procedure: (§1) Additionally, the affinity of compound 27 at the adrenergic α1A, muscarinic M1, histaminergic H1, dopaminergic D3, serotoninergic 5-HT2C, 5-HT3 receptors, serotonin transporter (SERT), and the human ether-a-go-go-related gene (hERG) channel were evaluated in Eurofins Cerep.

H1 histaminic receptor = molecular target: T2, H1 histaminic receptor (Homo sapiens, UniProt P35367); test: as above
T2 construct: Eurofins Cerep (contract assay)
Procedure: as §1

hERG channel = molecular target: T3, hERG channel (Homo sapiens, UniProt Q12809); test: as above
T3 construct: Eurofins Cerep (contract assay)
Procedure: as §1

[1] = molecular target: T4, serotonin 5-HT2C receptor (Homo sapiens, UniProt P28335); test: as above
T4 construct: Eurofins Cerep (contract assay)
T4 sequence (P28335 33-458): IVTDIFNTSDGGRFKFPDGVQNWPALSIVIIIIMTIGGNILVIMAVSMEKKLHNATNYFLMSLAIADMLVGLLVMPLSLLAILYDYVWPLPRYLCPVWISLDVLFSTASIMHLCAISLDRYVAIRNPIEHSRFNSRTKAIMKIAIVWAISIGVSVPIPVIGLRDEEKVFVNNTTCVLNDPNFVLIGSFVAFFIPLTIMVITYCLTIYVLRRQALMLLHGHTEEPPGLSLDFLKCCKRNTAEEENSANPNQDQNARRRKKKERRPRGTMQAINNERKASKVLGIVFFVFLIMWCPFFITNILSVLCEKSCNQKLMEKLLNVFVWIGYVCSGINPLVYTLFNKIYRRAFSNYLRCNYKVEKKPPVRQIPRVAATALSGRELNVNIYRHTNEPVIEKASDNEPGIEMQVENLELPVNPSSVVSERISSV
Procedure: as §1

serotonin 5-HT3 receptor = molecular target: T5, serotonin 5-HT3 receptor (Homo sapiens, UniProt P46098); test: as above
T5 construct: Eurofins Cerep (contract assay)
T5 sequence (P46098 24-478): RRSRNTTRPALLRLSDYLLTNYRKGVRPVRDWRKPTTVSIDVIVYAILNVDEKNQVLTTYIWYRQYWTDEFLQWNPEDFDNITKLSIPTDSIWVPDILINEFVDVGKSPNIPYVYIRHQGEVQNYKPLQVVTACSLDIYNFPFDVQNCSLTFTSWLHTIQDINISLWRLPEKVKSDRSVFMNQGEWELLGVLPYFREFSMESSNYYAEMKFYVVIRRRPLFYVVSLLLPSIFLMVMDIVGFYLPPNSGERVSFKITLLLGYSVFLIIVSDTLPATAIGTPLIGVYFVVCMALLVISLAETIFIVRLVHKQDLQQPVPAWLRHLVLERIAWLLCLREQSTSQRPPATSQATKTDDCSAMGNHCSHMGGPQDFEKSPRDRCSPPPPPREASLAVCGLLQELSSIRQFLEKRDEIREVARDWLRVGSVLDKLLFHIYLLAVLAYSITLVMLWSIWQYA
Procedure: as §1

[2] = molecular target: T6, serotonin transporter (SERT) (Homo sapiens, UniProt P31645); test: as above
T6 construct: Eurofins Cerep (contract assay)
Procedure: as §1

[3] = test system: scopolamine-induced cognitive impairment; test: Novel object recognition (NOR) test under scopolamine-induced memory decline; format: in vivo, male Sprague-Dawley rats; conditions: rats, scopolamine 1.25 mg/kg ip
Procedure: The experiments were conducted in accordance with the NIH Guide for the Care and Use of Laboratory Animals and were approved by the II Local Ethics Committee for Animal Experiments, Maj Institute of Pharmacology. Male […] Sprague-Dawley rats (Charles River, Germany) weighing ∼250 g at the arrival were housed in the standard laboratory cages, under standard colony A/C controlled conditions: room temperature 21 ± 2 °C, humidity (40–50%), 12 h light/dark cycle (lights on, 06:00) with ad libitum access to food (unless stated otherwise) and water. Rats were allowed to acclimatize for at least 7 days before the start of the experimental procedure. During this week animals were handled at least 3 times. Behavioral testing was carried out during the light phase of the light/dark cycle. […]
The procedure consisted of habituation to the arena (without any objects) for 5 min, 24 h before the test, and test session comprised two trials separated by an inter trial interval (ITI). […] Exploration time of the objects and the distance traveled were measured using the Any-maze video tracking system. On the basis of exploration time (E) of two objects during T2, discrimination index (DI) was calculated according to the formula: DI = (EB – EA)/(EA + […]).
Data were analyzed using one-way ANOVA with treatment as between-subject factor. […]

T2 sequence (P35367 whole entry): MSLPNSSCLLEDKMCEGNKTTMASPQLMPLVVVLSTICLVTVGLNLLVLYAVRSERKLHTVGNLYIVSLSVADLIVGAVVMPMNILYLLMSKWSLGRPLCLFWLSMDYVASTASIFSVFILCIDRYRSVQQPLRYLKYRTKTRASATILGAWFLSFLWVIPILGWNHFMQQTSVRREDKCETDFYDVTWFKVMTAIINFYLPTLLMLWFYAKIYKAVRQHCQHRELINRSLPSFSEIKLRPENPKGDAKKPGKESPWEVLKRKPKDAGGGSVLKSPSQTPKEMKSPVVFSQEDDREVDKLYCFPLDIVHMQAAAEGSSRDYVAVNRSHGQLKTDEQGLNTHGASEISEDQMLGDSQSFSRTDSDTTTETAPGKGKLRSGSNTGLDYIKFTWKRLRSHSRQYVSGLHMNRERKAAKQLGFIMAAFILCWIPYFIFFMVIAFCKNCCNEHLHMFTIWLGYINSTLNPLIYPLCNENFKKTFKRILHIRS
T1 sequence (P35462 whole entry): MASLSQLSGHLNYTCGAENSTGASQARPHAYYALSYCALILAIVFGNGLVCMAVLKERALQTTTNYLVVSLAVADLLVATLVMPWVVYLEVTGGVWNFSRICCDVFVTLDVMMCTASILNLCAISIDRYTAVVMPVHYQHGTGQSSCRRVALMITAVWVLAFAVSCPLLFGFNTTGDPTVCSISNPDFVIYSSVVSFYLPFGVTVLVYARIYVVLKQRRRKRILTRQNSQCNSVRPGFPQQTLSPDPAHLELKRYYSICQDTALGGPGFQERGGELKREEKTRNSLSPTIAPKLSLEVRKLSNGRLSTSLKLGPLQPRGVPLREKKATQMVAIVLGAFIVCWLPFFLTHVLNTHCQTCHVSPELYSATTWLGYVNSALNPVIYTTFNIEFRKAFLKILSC
T6 sequence (P31645 whole entry, species assumed): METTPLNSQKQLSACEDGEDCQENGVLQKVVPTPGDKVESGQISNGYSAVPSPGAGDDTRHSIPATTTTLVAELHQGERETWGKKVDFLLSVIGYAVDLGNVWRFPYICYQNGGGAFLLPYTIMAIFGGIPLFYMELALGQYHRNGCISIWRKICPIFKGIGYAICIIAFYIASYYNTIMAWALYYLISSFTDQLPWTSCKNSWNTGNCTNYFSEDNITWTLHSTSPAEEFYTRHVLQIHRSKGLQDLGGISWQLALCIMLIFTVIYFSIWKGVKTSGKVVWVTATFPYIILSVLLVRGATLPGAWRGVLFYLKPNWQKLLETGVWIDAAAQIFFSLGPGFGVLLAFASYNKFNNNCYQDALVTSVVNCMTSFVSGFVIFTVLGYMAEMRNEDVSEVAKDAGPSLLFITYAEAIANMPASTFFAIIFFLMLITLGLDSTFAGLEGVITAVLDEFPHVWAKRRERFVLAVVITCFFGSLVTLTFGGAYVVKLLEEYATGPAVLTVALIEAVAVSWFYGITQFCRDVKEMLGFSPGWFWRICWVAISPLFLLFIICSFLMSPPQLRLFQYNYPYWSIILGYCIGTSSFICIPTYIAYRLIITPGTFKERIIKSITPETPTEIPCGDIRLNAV
T3 sequence (Q12809 whole entry): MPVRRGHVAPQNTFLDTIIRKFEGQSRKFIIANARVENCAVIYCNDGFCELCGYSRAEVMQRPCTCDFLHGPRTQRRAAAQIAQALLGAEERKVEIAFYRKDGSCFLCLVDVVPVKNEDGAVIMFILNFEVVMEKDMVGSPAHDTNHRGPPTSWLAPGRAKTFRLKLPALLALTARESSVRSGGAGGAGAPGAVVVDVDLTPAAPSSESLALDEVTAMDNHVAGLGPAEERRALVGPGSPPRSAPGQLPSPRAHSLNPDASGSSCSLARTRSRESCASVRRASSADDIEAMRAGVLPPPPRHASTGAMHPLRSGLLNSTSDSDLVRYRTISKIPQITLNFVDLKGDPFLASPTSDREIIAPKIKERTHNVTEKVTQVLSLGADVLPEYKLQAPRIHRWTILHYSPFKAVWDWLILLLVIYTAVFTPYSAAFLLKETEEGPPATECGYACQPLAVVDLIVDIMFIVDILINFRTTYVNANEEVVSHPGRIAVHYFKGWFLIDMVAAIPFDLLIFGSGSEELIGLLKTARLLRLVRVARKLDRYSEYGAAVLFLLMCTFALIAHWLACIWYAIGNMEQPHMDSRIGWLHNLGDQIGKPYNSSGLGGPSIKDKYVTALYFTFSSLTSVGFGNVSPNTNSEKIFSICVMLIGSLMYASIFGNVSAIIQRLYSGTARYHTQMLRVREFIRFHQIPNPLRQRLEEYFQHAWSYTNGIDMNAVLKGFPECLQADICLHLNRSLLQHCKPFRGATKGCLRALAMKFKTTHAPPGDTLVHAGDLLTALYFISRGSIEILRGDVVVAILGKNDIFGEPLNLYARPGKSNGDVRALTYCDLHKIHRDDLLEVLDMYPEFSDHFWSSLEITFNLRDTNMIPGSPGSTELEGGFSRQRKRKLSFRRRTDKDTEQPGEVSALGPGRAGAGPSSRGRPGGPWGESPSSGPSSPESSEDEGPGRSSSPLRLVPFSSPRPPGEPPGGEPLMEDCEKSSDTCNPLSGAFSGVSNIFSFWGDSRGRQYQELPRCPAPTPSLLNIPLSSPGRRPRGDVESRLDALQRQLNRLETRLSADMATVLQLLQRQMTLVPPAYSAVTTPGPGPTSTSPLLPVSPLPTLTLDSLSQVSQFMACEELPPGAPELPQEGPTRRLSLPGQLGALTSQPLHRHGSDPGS

SMILES: O=C(N[C@@H]1CCNC1)c1ccn(S(=O)(=O)c2cccc(Cl)c2)c1-c1ccc(F)cc1 [Compound 27, (R)-2-(4-Fluorophenyl)-1-[(3-chlorophenyl)sulfonyl]-N-(pyrrolidin-3-yl)-1H-pyrrole-3-carboxamide]
- inhibition at 1 µM (D3 dopamine receptor): 17%
- inhibition at 1 µM (H1 histaminic receptor): 9%
- inhibition at 1 µM (hERG channel): 1%
- inhibition at 1 µM [1]: 10%
- inhibition at 1 µM (serotonin 5-HT3 receptor): 2%
- inhibition at 1 µM [2]: 10%
- effect on scopolamine-induced cognitive deficits (discrimination index) ([3]; 3 mg/kg p.o.): not 3 mg/kg, prevented scopolamine-induced cognitive deficits
- effect on scopolamine-induced cognitive deficits (discrimination index) ([3]; 6 mg/kg p.o.): prevented scopolamine-induced cognitive deficits
